According to patent US20160213639A1, “COMPOSITIONS AND METHODS FOR TREATING NON-ALCOHOLIC STEATOHEPATITIS” (MOCHIDA PHARMACEUTICAL CO., LTD., priority 2013, published 2016):

Legend:
[1] = ADME of 14C-EPA-E in rats (absorption, distribution, metabolites, excretion); format: in vivo
Procedure: EPADEL® is a product containing ethyl all-cis-5,8,11,14,17-eicosapentaenoate (EPA-E), one of the n-3 essential fatty acids. The preclinical absorption, distribution, metabolism and excretion (ADME) characteristics of EPA-E have been determined primarily in rats.
After administration of ^14C-EPA-E into the ligated intestine of rats, the residual radioactivity in the intestine at 24 hours was only 4.6% of the administered dose. Radioactivity transferred to the plasma and lymph was mainly detected in the triglyceride (TG) fraction in the early phase after dosing, while distribution to the free fatty acid (FFA) fraction was slight at all timepoints. […] Orally administered EPA-E was primarily incorporated in adrenal gland lipids as cholesterol esters of the fatty acids eicosapentaenoic acid (EPA), docosapentaenoic acid (DPA) and docosahexaenoic acid (DHA).
(§1) Consequently, when EPA-E is administered orally to humans, it would appear that it is well absorbed, even though the unchanged ethyl ester form is not detected, and the free form (EPA) is only detected at a very low level, in the blood. Due to this absorption mechanism of essential fatty acids, the administered EPA-E exists as a blood-constituent fatty acid in the total lipids. In fact, according to the approval package document of Lovaza®, the free form of EPA is undetectable in the circulation (<1 μM) following an oral dose of 4 g of Omacor® (a mixture of the ethyl esters of EPA and DHA) Following oral administration of EPA-E, EPA, DPA and DHA were isolated and identified as metabolites in tissues and plasma. EPA, DPA and DHA were incorporated into TG and PL. Radioactivity was primarily excreted in expired air (44%) after single oral administration at 30 mg/kg EPA-E with minimal excretion in bile and urine (˜3%) and approximately 20% excreted in feces.
Renal excretion was the elimination route for several minor highly polar metabolites (<0.4%), but EPA-E, EPA, DPA or DHA were not detected in the urine. In feces, EPA-E and EPA, evidently derived from the unabsorbed drug, were detected; however, no DPA or DHA was detected in the feces.
In the total lipid fraction of the liver, the radioactivity originated mainly from EPA, DPA and DHA. Thus, it is considered that EPA, DPA and DHA are the predominant metabolites of ^14C-EPA-E in tissues, as constituent fatty acids of the total lipid fraction.

[2] = Hydrolysis in small intestine homogenates, lymph, plasma and liver homogenates; format: in vitro ADME; conditions: plasma and liver homogenates of the rat
[3] = design: species or system dogs; conditions: dog, in vivo, po, 30 mg/kg, 1 week
Procedure: as §1

[4] = Lipid lowering in animal models; format: in vivo; conditions: rats, hamsters and rabbits
platelets = test: Platelet anti-aggregation; format: cell-based; conditions: platelets from rats, rabbits and humans
Elasticity of arteries = format: in vivo; conditions: rabbits
[5] = test system: diet-induced hepatic steatosis model; test: Mouse diet-induced hepatic steatosis model; format: in vivo; conditions: repeat oral administration at >0.1 mg/g
[6] = test system: galactosamine-induced steatohepatitis mouse model; test: Galactosamine-induced steatohepatitis mouse model; format: in vivo; conditions: oral administration at 1000 mg/kg; by suppressing triglyceride accumulation
[7] = test system: methionine-choline deficient diet rat model of nonalcoholic steatohepatitis; test: Methionine-choline deficient diet rat model of nonalcoholic steatohepatitis; format: in vivo; conditions: repeat oral administration at 1000 mg/kg
[8] = Safety pharmacology studies; format: in vivo; conditions: oral doses up to 3000 mg/kg
[9] = Gastric fluid levels in pylorus-ligated rats; format: in vivo; conditions: 3000 mg/kg oral dose
NASH [10] = test: Phase II NASH trial: liver histology (NAS, steatosis, ballooning, inflammation, fibrosis); format: in vivo, human; conditions: for subjects who met the primary endpoint: 12 months, p=ns vs placebo (20); for mean decrease in NAS: placebo 0.9, p=n.s.; for subjects with a decrease in NAS by more than 2 points: placebo sixteen, p=n.s.
From the text: (§2) This example provides the protocol used for an ongoing phase II clinical trial, double blind, placebo-controlled study to investigate the safety, efficacy, and pharmacokinetic profile of two doses of EPA-E in subjects with NASH. Up to 70 subjects were enrolled into each treatment arm, for a total of 210 subjects to be enrolled. Block randomization using an interactive voice response system (IVRS) was used to assign patients in a 1:1:1 ratio to two active doses and placebo. Patients were stratified at randomization by presence or absence of diabetes. Patients with diabetes comprised no more than 25% of the total number of patients enrolled. Subjects were treated with 600 mg EPA-E, 900 mg EPA-E or placebo three times a day for one year.
In order to support the trial, EPA-E capsules and matching placebo capsules were prepared. EPA-E capsule is an oval soft gelatin capsule containing 300 mg of EPA-E as an active ingredient. […] These capsules are unidentifiable as EPA-E capsules or placebo capsules.
Subjects were administered orally 3 capsules 3 times daily, immediately after meals.
Adult subjects with biopsy-confirmed NASH within six months prior to randomization or those with suspected NASH were screened for the study. […] The histology was assessed using the NASH CRN criteria. The histological entry criteria included (1) the presence of possible or definite steatohepatitis, and (2) a NAFLD activity score (NAS) ≧4 with a minimum score of 1 each for steatosis and inflammation plus either ballooning or at least stage 1a sinusoidal fibrosis. The nonalcoholic nature of the disease was defined by a history of consumption of less than 3 drinks daily (approximately 10 gm alcohol/drink) for the previous 5 years. Those who exceeded these limits at the time of randomization or for more than 3 consecutive months within the five year time frame were excluded.
The liver biopsies from subjects being considered for the trial were sent to a central pathology laboratory where they were read and scored. A total of 4 pathologists with experience in liver histopathology reviewed the biopsies. All the pathologists underwent a training session conducted by the lead pathologist (OWC) prior to the study. After slide quality assessment, the cases were randomly assigned to 2 reviewers who scored fatty change, lobular inflammation, hepatocyte ballooning and fibrosis as previously described. If there was a discrepancy between any of these evaluations, a third randomly assigned reviewer agreed with one of the choices thereby producing a single concordant NAS and fibrosis score for the biopsy.
(§3) Following confirmation of eligibility based on both inclusion and exclusion criteria, subjects were randomized to receive placebo or one of two doses of EPA-E (1800 mg/day or 2700 mg/day) in three divided doses daily. Block randomization using an interactive voice response system was used to assign subjects in a 1:1:1 ratio between the three arms. Subjects were stratified by the presence of diabetes, impaired glucose tolerance or metabolic syndrome on stable doses of medication. The total fraction of such individuals was capped at 40% of the study cohort.
(§4) All subjects were followed according to a predefined clinic schedule. Data from unscheduled visits were collected in separate forms. Following twelve months of treatment, all subjects underwent a protocol-driven liver biopsy. Study drug was then discontinued.
The primary one-year efficacy endpoint was a composite of either a NAS <3 without worsening of fibrosis or a drop in NAS by 2 or more with contribution from more than one parameter and no worsening of fibrosis. The proportions of subjects meeting this endpoint after 12 months of treatment in those receiving EPA-E were compared to those receiving placebo using the Cochrane-Armitage trend test. A short-term efficacy endpoint was changes from baseline in alanine aminotransferase at 3 and 6 months. This was assessed by analysis of covariance. […]

NASH [11] = test: Phase II NASH trial: laboratory parameters and circulating markers; format: in vivo, human
From the text: as §2, §3, §4
The primary one-year efficacy endpoint was a composite of either a NAS <3 without worsening of fibrosis or a drop in NAS by 2 or more with contribution from more than one parameter and no worsening of fibrosis. The proportions of subjects meeting this endpoint after 12 months of treatment in those receiving EPA-E were compared to those receiving placebo using the Cochrane-Armitage trend test. A short-term efficacy endpoint was changes from baseline in alanine aminotransferase at 3 and 6 months. This was assessed by analysis of covariance. Secondary endpoints included changes in the individual histological parameters related to NAFLD, overall NAS, liver enzymes and function, hemoglobin A1C, acute phase reactants, insulin sensitivity as measured by the homeostatic model (HOMA-IR), levels of cytokeratin 18 (CK18), hyaluronic acid, type IV collagen (7S domain), procollagen III peptide and key cytokines. Proportions of subjects meeting categorical endpoints were compared using the Cochrane-Armitage test for trend. Numerical scores were compared using Wilcoxon 2-sample tests. Safety-related endpoints included adverse events including hematological-, biochemical-, renal- and EKG-related abnormalities. These were enumerated.

[12] = Phase II NASH trial: safety analysis; format: in vivo, human; conditions: over the course of the study, all arms
From the text: as §2, with “year. […]” for “year.”
The primary one-year efficacy endpoint was a composite of either a NAS <3 without worsening of fibrosis or a drop in NAS by 2 or more with contribution from more than one parameter and no worsening of fibrosis. […] This was assessed by analysis of covariance. Secondary endpoints included changes in the individual histological parameters related to NAFLD, overall NAS, liver enzymes and function, hemoglobin A1C, acute phase reactants, insulin sensitivity as measured by the homeostatic model (HOMA-IR), levels of cytokeratin 18 (CK18), hyaluronic acid, type IV collagen (7S domain), procollagen III peptide and key cytokines. […]

CYP450 = conditions: at free concentrations observed in humans; cited from earlier work
[13] = single oral administration at 30 mg/kg

CC/C=C\C/C=C\C/C=C\C/C=C\C/C=C\CCCC(=O)OCC [^14C-EPA-E]
residual radioactivity in the intestine ([1]; administration into the ligated intestine of rats, at 24 hours): 4.6 % of the administered dose | unchanged EPA-E in plasma or tissues ([1]; oral administration to the rat): no unchanged EPA-E was found | metabolites in the total lipid fraction of plasma and tissues ([1]; oral administration to the rat, liver, fat, heart and brain): EPA, DPA and DHA were detected as metabolites | distribution of radioactivity in body tissues ([1]; rats): relatively high levels were observed especially in the brown fat, adrenal, liver and pancreas | absorption ([1]; single oral dose 30-1000 mg/kg, rats): well-absorbed, mainly through the lymphatic route | hydrolysis [2]: hydrolyzed rapidly | radioactivity excreted in the urine [3]: 1.0% | radioactivity recovered in the feces [3]: 19.2%

CC/C=C\C/C=C\C/C=C\C/C=C\C/C=C\CCCC(=O)OCC [EPA-E, ethyl all-cis-5,8,11,14,17-eicosapentaenoate]
lipids [4]: lower lipids | effects on platelets (platelets): anti-aggregation effects | elasticity of arteries (Elasticity of arteries): preserve the elasticity of arteries | fat accumulation [5]: suppressed fat accumulation | hepatic SREBP-1c levels [5]: suppressing hepatic SREBP-1c levels | progression of steatohepatitis [6]: retarded progression of steatohepatitis | fibrosis [7]: inhibited fibrosis | effect on central nervous, autonomic nervous, respiratory and cardiovascular systems [8]: no effect on the central nervous, autonomic nervous, respiratory and cardiovascular systems | gastric fluid levels [9]: reduction in gastric fluid levels | radioactivity excreted in expired air ([1]; rat, in vivo, po, 30 mg/kg): 44% | radioactivity excreted in bile and urine [1, 13]: ~3% | radioactivity excreted in feces [1, 13]: approximately 20% | distribution of fibrosis scores (NASH [10]; any of the treatment arms, over the duration of the study): no significant changes in the distribution of fibrosis scores | steatosis grade (NASH [10]; cohort as a whole, low dose and high dose, efficacy evaluable dataset): Neither low dose-nor high dose-EPA-E affected the steatosis grade significantly | subjects who met the primary endpoint (NASH [10]; high dose EPA-E (2700 mg/day)): 22 subjects | mean decrease in NAS (NASH [10]; high dose EPA-E (2700 mg/day)): 0.8 | subjects with a decrease in NAS by more than 2 points (NASH [10]; high dose EPA-E (2700 mg/day)): 18 subjects | subjects who met the primary endpoint (NASH [10]; low dose EPA-E (1800 mg/day)): 19 subjects | mean decrease in NAS (NASH [10]; low dose EPA-E (1800 mg/day)): 1 | subjects with a decrease in NAS by more than 2 points (NASH [10]; low dose EPA-E (1800 mg/day)): 16 subjects | cytological ballooning and lobular inflammation scores (NASH [10]; low dose and high dose, efficacy evaluable dataset): not significantly altered | increased likelihood of beneficial impact on overall NAS score (NASH [10]; women <50, 1800 mg/day vs placebo, adjusted, p<0.03): 10 fold | increased likelihood of beneficial impact on steatosis grade (NASH [10]; women <50, 1800 mg/day vs placebo, adjusted, p<0.04): 8 fold | increased likelihood of beneficial impact on overall NAS score (NASH [10]; women <50, 2700 mg/day vs placebo, adjusted, p<0.04): 7 fold | odds ratio, beneficial impact in steatosis (NASH [10]; women under 50 years of age, low dose EPA-E vs placebo, adjusted for baseline histology, BMI and changes in BMI, p=0.03): 7.9 | odds ratio, beneficial impact in overall NAS (NASH [10]; women under 50 years of age, low dose EPA-E vs placebo, adjusted, p=0.02): 10.5 | odds ratio, beneficial impact in overall NAS (NASH [10]; women under 50 years of age, second value (dose group not given), adjusted, p=0.03): 6.8 | body mass index (NASH [11]; across groups): remained similar across groups | AST, ALT or GGT (NASH [11]; baseline to end of study, FIG. 8): no significant changes | HgbA1C or circulating fasting insulin concentrations (NASH [11]; either active treatment arm compared to placebo): no significant changes | change in serum triglycerides (NASH [11]; high dose EPA-E, placebo 11.5±50.9, p<0.05, Wilcoxon rank sum test): −4.9±116.0 | change in serum ALT (NASH [11]; high dose EPA-E, placebo −24.1±48.3, p<0.05, Wilcoxon rank sum test): −3.2±51.5 | hepatic synthetic functions (NASH [11]; over the course of the study): did not change over the course of the study and remained stable | deaths [12]: No deaths occurred

CC/C=C\C/C=C\C/C=C\C/C=C\C/C=C\CCCC(=O)O [EPA, eicosapentaenoic acid]
CYP450 inhibition (CYP450): unlikely to inhibit CYP450
